According to publication PMC10813862, “Gαi2 Protein Inhibition Blocks Chemotherapy- and Anti-Androgen-Induced Prostate Cancer Cell Migration” (Cancers, 2024):
Where “and” joins values, the source holds several entries; their conditions need not be identical. Equal entries are not always repeated.

Legend:
PC3 cells [1] = test: transwell migration assay, PC3 cells; assay type: cell-based, human; conditions: for effect on PC3 cell migration (migration index): compound alone, concentration range 0.1 to 100 μM, 5 h, compared with 14; for PC3 cell migration in combination with SAHA or docetaxel: Gαi2 inhibitor at 20 μM, in combination with either SAHA or docetaxel; for effect of chemotherapeutic drugs on PC3 cell migration: drug alone, AR-negative cells
Protocol: (§1) In vitro transwell migration assays were conducted as described previously. Briefly, the outside of the transwell inserts (BD Biosciences, San Jose, CA, USA) were coated with 50 µL of rat tail collagen (50 μg/mL; BD Biosciences, San Jose, CA, USA) overnight at 4 °C. The next day, 50 μL of the aforementioned rat tail collagen was added for 1 h at room temperature into the transwell inserts to coat the inside of the membranes. DU145, PC3 and LNCaP cells were trypsinized and suspended at the appropriate density (3 × 10^5 cells/insert for DU145 and PC3, and 5 × 10^5 cells/insert for LNCaP) in MEM or RPMI containing 0.2% BSA (Sigma-Aldrich, St. Louis, MO, USA). Chemoattractant solution, used as the positive control, was made by diluting the epidermal growth factor (EGF) (10 ng/mL) into MEM (PC3 and DU145) or RPMI (LNCaP) supplemented with 0.2% BSA. Media containing 0.2% BSA served as a control. Control and EGF solutions (400 μL) were added into the wells of a 24-well plate. Aliquots of 100 μL of cell suspensions, treated with or without the different compounds at several concentrations, were loaded into the transwell inserts, and the plates were incubated at 37 °C for 5 h (DU145 and PC3) or 24 h (LNCaP). The cells inside the transwell inserts were removed by cotton swabs, and the cleaned inserts were fixed with 350 μL of 4% paraformaldehyde (pH 7.5) for 20 min at room temperature. Cells that had migrated to the outside of the transwell insert membrane were stained with 3 ng/mL of DAPI solution (Thermo Fisher Scientific, Eugene, OR, USA), and images of five non-overlapping fields were captured using an Axiovert 200M, Carl Zeiss (Thornwood, NY, USA) microscope. The number of stained nuclei were determined with automatic counting using image analysis software (ZEN 2012 (blue edition, Version 1.1.1.0); Carl Zeiss Microscopy GmbH, Oberkochen, Germany). The results were expressed as a migration index defined as the average number of cells per field for test substance/the average number of cells per field for the medium control.

LNCaP cells [2] = test: MTS viability, LNCaP cells; assay type: cell-based; conditions: Homo sapiens, 72 h, n=3
Protocol: (§2) Figure S1A. Effects of compounds 3- 7, 10, 12, 13 and 15 on the viability of LNCaP,
(§3) MDA-MD-231, MCF-7 and Vero cells. The cells are incubated with the drugs for 72 h
(§4) and viability evaluated with MTS. NI = IC50 greater than 100 μM. n=3
(§5) Compound LNCaP (µM) MDA-MB-231 (µM) MCF-7 (µM) Vero (µM)

MDA-MB-231 cells = test: MTS viability, MDA-MB-231 cells; assay type: cell-based; conditions: Homo sapiens, 72 h, n=3
Protocol: as §2, §3, §4, §5

MCF-7 cells = test: MTS viability, MCF-7 cells; assay type: cell-based; conditions: Homo sapiens, MCF7, 72 h, n=3
Protocol: as §2, §3, §4, §5

Vero cells = test: MTS viability, Vero cells; assay type: cell-based; conditions: Chlorocebus sabaeus, 72 h, n=3
Protocol: as §2, §3, §4, §5

LNCaP cells [3] = test: transwell migration assay, LNCaP cells; assay type: cell-based, human; conditions: for effect on LNCaP cell migration (migration index): drug alone at several concentrations; for effect on LNCaP cell migration (migration index) / concentration of maximum induction of LNCaP cell migration: 24 h; for concentration of maximum induction of LNCaP cell migration: drug alone
Protocol: as §1

Gαi2 protein [4] = test: Western blot of Gαi2 protein levels in LNCaP cells; assay type: cell-based, human; conditions: 24 h; enzalutamide 2.5 μM, bicalutamide 2.5 μM, SBI-I-19 2 μM, SAHA 4 μM
Protocol: (§6) Docetaxel, a taxoid anti-cancer agent, was purchased from Millipore-Sigma and dissolved in DMSO at a starting concentration of 100 μM. SAHA, a commercially available FDA-approved HDACi, was purchased from Sigma-Aldrich (St. Louis, MO, USA) and dissolved in DMSO at a starting concentration of 100 mM. SBI-I-19, an HDAC inhibitor conjugated with anti-androgen, was dissolved in DMSO at a starting concentration of 50 mM. The anti-androgen drugs enzalutamide and bicalutamide were purchased from Selleckchem (Houston, TX, USA) and Sigma-Aldrich, respectively. Anti-androgens were prepared at a stock concentration of 100 mM (enzalutamide) and 10 mM (bicalutamide) in DMSO. The Gαi2 inhibitor (compound 14) was diluted in DMSO at a stock concentration of 100 mM, as previously described. All drugs used in the study were then diluted in the culture media to the final concentrations used in various assays. To determine the effects of specific treatments on the levels of Gαi2 protein, LNCaP and PC3 cells (10^6 cells) were cultured overnight in 10 cm^2 culture dishes. The cells were then treated with anti-androgens and other agents for 24 h and the total cell lysates were collected for Western blot analyses.
Western blot analyses were performed as described previously. Briefly, cell lysates were mixed with Laemmeli’s buffer (62.5 mM Tris, pH 6.8, 2% sodium dodecyl sulfate, 5% β–mercaptoethanol and 10% glycerol). Samples (30–35 µg proteins) were separated on 10% SDS-PAGE gels and transferred to polyvinylidene difluoride (PVDF) membranes (Millipore Corp., Bedford, MA, USA). After blocking the membranes with 5% fat-free milk in TBST (50 mM Tris, pH 7.5, containing 0.15 M NaCl, and 0.05% Tween 20) for 1 h at room temperature, the membranes were incubated with specific primary antibodies at appropriate dilutions (1:5000 for Gαi2; 1:3000 for α-tubulin) overnight at 4 °C. After washing, the blots were incubated with appropriate secondary antibodies. The blots were then developed in Millipore Luminata Forte (EMD Millipore) for 5 min and visualized using a BioRad ChemiDoc Imaging System, according to the manufacturer’s instructions. The density of specific protein bands was determined using ImageJ 1.53 K image analyses software.

[5] = stability in human plasma; assay type: in vitro ADME; conditions: read-out: Plasma t1/2, Human
Description: Table 1 Stability of compounds 6, 7 and 10 in human and mouse plasma and liver microsomes. | column: Plasma (t1/2 = Min) / Human

[6] = stability in mouse plasma; assay type: in vitro ADME; conditions: read-out: Plasma t1/2, Mouse
Description: Table 1 Stability of compounds 6, 7 and 10 in human and mouse plasma and liver microsomes. | column: Plasma (t1/2 = Min) / Mouse

[7] = stability in human liver microsomes; assay type: in vitro ADME; conditions: read-out: Microsome t1/2, Human
Description: Table 1 Stability of compounds 6, 7 and 10 in human and mouse plasma and liver microsomes. | column: Microsome (t1/2 = Min) / Human

[8] = stability in mouse liver microsomes; assay type: in vitro ADME; conditions: read-out: Microsome t1/2, Mouse
Description: Table 1 Stability of compounds 6, 7 and 10 in human and mouse plasma and liver microsomes. | column: Microsome (t1/2 = Min) / Mouse

DU145 cells [9] = test: transwell migration assay, DU145 cells; assay type: cell-based, human; conditions: drug alone, AR-negative cells
Protocol: as §1

PC3 cells [10] = tested on: PC3 cells; set-up: method as in PMID 32575572; conditions: cited from earlier work
DU145 cells [11] = tested on: DU145 cells; set-up: method as in PMID 32575572; conditions: cited from earlier work
Gαi2 protein [12] = test: Western blot of Gαi2 protein levels in PC3 cells; assay type: cell-based, human; conditions: 24 h; docetaxel 1 nM
Protocol: as §6
Western blot analyses were performed as described previously. […] The density of specific protein bands was determined using ImageJ 1.53 K image analyses software.

Row | IC50 (LNCaP cells [2]) [µM] | IC50 (MDA-MB-231 cells) [µM] | IC50 (MCF-7 cells) [µM] | Structure (SMILES) | effect on PC3 cell migration (migration index) (PC3 cells [1]) | IC50 (Vero cells) [µM] | also measured
1 | > 100 | > 100 | > 100 | Cn1c(/C=N/c2ccc(O)cc2)cc2ccccc21 [Compound 3] | concentration dependent reduction of PC3 cell migration, but less efficiently relative to 14 | > 100 | –
2 | – | – | – | CC(O)(CS(=O)(=O)c1ccc(F)cc1)C(=O)Nc1ccc(C#N)c(C(F)(F)F)c1 (stereo not shown) [bicalutamide] | – | – | effect on LNCaP cell migration (migration index) (LNCaP cells [3]): induced a dose-dependent increase in cell migration; concentration of maximum induction of LNCaP cell migration (LNCaP cells [3]): 2.5 µM; levels of Gαi2 protein in LNCaP cells (Gαi2 protein [4]): increased levels of Gαi2 protein
3 | 86.8 ± 10.8 | 27.3 ± 4.8 | 75.7 ± 5.3 | CC(Nc1ccc(O)cc1)c1cc2ccccc2n1C (stereo not shown) [Compound 6] | more effective relative to 14 | 32.4 ± 1.6 | PC3 cell migration in combination with SAHA or docetaxel (PC3 cells [1]): decreased significantly PC3 cell migration; half-life [5]: > 120 min; half-life [6]: 27 min; half-life [7]: 118 min; half-life [8]: 47 min
4 | 43.4 ± 3.9 | > 100 | > 100 | CSc1ccc(NC(C)c2cc3ccccc3n2C)cc1 (stereo not shown) [Compound 7] | more effective relative to 14 | > 100 | PC3 cell migration in combination with SAHA or docetaxel (PC3 cells [1]): decreased significantly PC3 cell migration; half-life [5]: > 120 min; half-life [6]: > 120 min; half-life [7]: 45 min; half-life [8]: < 10 min
5 | > 100 | > 100 | > 100 | CC(Oc1ccc(O)cc1)c1cc2ccccc2n1C (stereo not shown) [Compound 15] | did not inhibit the migration of PC3 cells at the maximum concentration tested | > 100 | –
6 | – | – | – | CC1(C)C(=O)N(c2ccc(C#N)c(C(F)(F)F)c2)C(=O)N1Cc1ccc(-c2cn(CCCCC(=O)NO)nn2)cc1 [SBI-I-19] | – | – | effect on LNCaP cell migration (migration index) (LNCaP cells [3]): induced a significant dose-dependent increase in cell migration; concentration of maximum induction of LNCaP cell migration (LNCaP cells [3]): 1 µM and 2 µM; effect of chemotherapeutic drugs on DU145 cell migration (DU145 cells [9]): increased cell migration; levels of Gαi2 protein in LNCaP cells (Gαi2 protein [4]): increased levels of Gαi2 protein
7 | – | – | – | O=C(CCCCCCC(=O)Nc1ccccc1)NO [SAHA] | – | – | effect of chemotherapeutic drugs on PC3 cell migration (PC3 cells [1]): induced an increase in cell migration; effect on LNCaP cell migration (migration index) (LNCaP cells [3]): induced a significant dose-dependent increase in cell migration; concentration of maximum induction of LNCaP cell migration (LNCaP cells [3]): 0.5 µM and 1 µM; effect of chemotherapeutic drugs on DU145 cell migration (DU145 cells [9]): increased cell migration; levels of Gαi2 protein in LNCaP cells (Gαi2 protein [4]): induced a reduction in the levels of Gαi2 protein
8 | – | – | – | C/C(=N\c1ccc(O)cc1)c1cc2ccccc2n1C [Compound 14] | – | – | effect on docetaxel-induced PC3 cell migration (PC3 cells [1]; compound 14 at 25 μM, simultaneous treatment with docetaxel): blocked the stimulatory effects of docetaxel; effect on HDACi- and anti-androgen-induced LNCaP cell migration (LNCaP cells [3]; compound 14 at 25 μM, simultaneous treatment with enzalutamide, bicalutamide, SAHA or SBI-I-19): blocked; EGF-induced migration of PC3 cells (PC3 cells [10]): attenuated the EGF-induced migration; EGF-induced migration of DU145 cells (DU145 cells [11]): attenuated the EGF-induced migration
9 | – | – | – | CC(=O)O[C@@]12CO[C@@H]1C[C@H](O)[C@@]1(C)C(=O)[C@H](O)C3=C(C)[C@@H](OC(=O)[C@H](O)[C@@H](NC(=O)OC(C)(C)C)c4ccccc4)C[C@@](O)([C@@H](OC(=O)c4ccccc4)[C@H]21)C3(C)C [docetaxel, reference compound] | – | – | effect of chemotherapeutic drugs on PC3 cell migration (PC3 cells [1]): induced an increase in cell migration; levels of Gαi2 protein in PC3 cells (Gαi2 protein [12]): had no effect on the levels of Gαi2 protein
10 | > 100 | > 100 | > 100 | CC(Oc1ccc([S+](C)[O-])cc1)c1cc2ccccc2n1C (stereo not shown) [Compound 13] | less effective | > 100 | –
11 | > 100 | > 100 | > 100 | Cn1c(CNc2ccc(O)cc2)cc2ccccc21 [Compound 5] | comparable potency | > 100 | –
12 | > 100 | > 100 | > 100 | CC(Oc1ccc(S(C)(=O)=O)cc1)c1cc2ccccc2n1C (stereo not shown) [Compound 12] | less effective | > 100 | –
13 | > 100 | > 100 | > 100 | CSc1ccc(OC(C)c2cc3ccccc3n2C)cc1 (stereo not shown) [Compound 10] | less potent compared to 7 | > 100 | PC3 cell migration in combination with SAHA or docetaxel (PC3 cells [1]): decreased significantly PC3 cell migration; half-life [5]: > 120 min; half-life [6]: > 120 min; half-life [7]: 35 min; half-life [8]: < 10 min
14 | – | – | – | CNC(=O)c1ccc(N2C(=S)N(c3ccc(C#N)c(C(F)(F)F)c3)C(=O)C2(C)C)cc1F [enzalutamide] | – | – | effect on LNCaP cell migration (migration index) (LNCaP cells [3]): induced a dose-dependent increase in cell migration; concentration of maximum induction of LNCaP cell migration (LNCaP cells [3]): 2.5 µM; effect of chemotherapeutic drugs on DU145 cell migration (DU145 cells [9]): increased cell migration; levels of Gαi2 protein in LNCaP cells (Gαi2 protein [4]): increased levels of Gαi2 protein
15 | > 100 | > 100 | > 100 | CSc1ccc(/N=C(\C)c2cc3ccccc3n2C)cc1 [Compound 4] | concentration dependent reduction of PC3 cell migration, but less efficiently relative to 14 | > 100 | –
